Test results as given in patent US7049312B1, “Benzothiazinone and benzoxazinone compounds” (Abbott GmbH & Co. KG, priority 1999, dated 2006).

| Structure (SMILES) | melting point [°C] |
| --- | --- |
| CC(=O)OCCCCn1cc(C=C2Sc3ccccc3NC2=O)c2cccnc21 [Example 131, 2-{[1-(4-Acetoxybutyl)-7-azaindol-3-yl]methylene}-2H-1,4-benzothiazine-3(4H)-one] | 158 to 160 |
| S=C1Nc2ccccc2SC1=Cc1c[nH]c2ccccc12 [Example 268, 2-[(Indol-3-yl)methylene]-2H-1,4-benzothiazine-3(4H)-thione] | 253 to 256 |
| S=C1Nc2ccccc2SC1=Cc1c[nH]c2ncccc12 [Example 269, 2-[(7-azaindol-3-yl)methylene]-2H-1,4-benzothiazine-3(4H)-thione] | 287 to 290 |
| S=C1Nc2ccccc2SC1=Cc1ccc[nH]1 [Example 270, 2-[(pyrrol-2-yl)methylene]-2H-1,4-benzothiazine-3(4H)-thione] | 205 to 206 |
| S=C1Nc2ccccc2OC1=Cc1ccc[nH]1 [Example 271, 2-[(Pyrrol-2-yl)methylene]-2H-1,4-benzoxazin-3 (4H)-thione] | 241 to 243 |
| S=C1Nc2ccccc2OC1=Cc1c[nH]c2ccccc12 [Example 272, 2-[(indol-3-yl)methylene]-2H-1,4-benzoxazin-3(4H)-thione] | 275 to 277 |

Other lines, results leading:

| melting point [°C] | Structure (SMILES) |
| --- | --- |
| 204 to 205 | ON=C1Nc2ccccc2SC1=Cc1ccc[nH]1 [Example 273, 3-Hydroxyimino-2-[(pyrrol-2-yl)methylene]-2H-1,4-benzothiazine] |
| 182 to 185 | CC(=O)ON=C1Nc2ccccc2SC1=Cc1ccc[nH]1 [Example 276, 3-Acetyloxyimino-2-[(pyrrol-2-yl)methylene]-2H-1,4-benzothiazine] |
| 188 to 189 | O=C(ON=C1Nc2ccccc2SC1=Cc1ccc[nH]1)c1ccccc1 [Example 277, 3-Benzoyloxyimino-2-[(pyrrol-2-yl)methylene]-2H-1,4-benzothiazine] |
| 192 to 194 | ON=C1Nc2ccccc2OC1=Cc1ccc[nH]1 [Example 278, 3-Hydroxyimino-2-[(pyrrol-2-yl)methylene]-2H-1,4-benzoxazine] |
| 318 to 320 | O=C1Nc2ccccc2S(=O)(=O)C1=Cc1c[nH]c2ccccc12 [Example 280, 1,1-Dioxo-2-[(indol-3-yl)methylene]-2H-1,4-benzothiazin-3(4H)-one] |
| 250 to 251 | COc1ccc(NC=C2C(=O)Nc3ccccc3S2(=O)=O)cc1 [Example 285, 1,1 Dioxo-2-[(4-methoxyphenylamino)methylene]-2H-1,4-benzothiazin-3(4H)-one] |
| 223 to 225 | O=C1Nc2ncccc2OC1=Cc1ccccc1 [Example 297, 2-(Phenylmethylene)-2H-pyrido[3,2-b][1,4]oxazin-3(4H)-one] |
